Reference: patent publication US20210254272A1, “TEXTILES HAVING ANTIMICROBIAL PROPERTIES” (Livinguard AG, priority 2015, published 2021)

Test system: E. coli (ATCC 25922)
Experiment: AATCC Test Method 100-2012 antibacterial activity of the treated textile, after 25 washes and 12 abrasion cycles, contact time 60 minutes
Type: cell-based
Conditions: for Performance Test-Log reduction of antimicrobial performance: pad process, 2 min
Description: The antibacterial activity of the textile was tested in accordance with AATCC Test Method 100-2012. Prior to the test, the fabric was cut into coupons of 2×4 inches and washed separately 25 times, and exposed to 12 abrasion cycles, as per US EPA protocol 90072PA4 (described further below). The tests were made against E. coli (ATCC 25922). Contact time was 60 minutes, after inoculating with 10^8 CFU per coupon.

CCCCCCCCCCCCCCCCCC[N+](C)(C)CCC[Si](OC)(OC)OC [Organosilane, dimethyloctadecyl[3-(trimethoxysilyl)propyl] ammonium chloride]
Performance Test-Log reduction of antimicrobial performance (single agent 5 gm/lit, curing 180° C.): 0.93 Log | Performance Test-Log reduction of antimicrobial performance (single agent 10 gm/lit, curing 120° C.): 0.38 Log | Performance Test-Log reduction of antimicrobial performance (single agent 10 gm/lit, curing 140° C.): 0.53 Log | Performance Test-Log reduction of antimicrobial performance (single agent 10 gm/lit, curing 150° C.): 0.62 Log | Performance Test-Log reduction of antimicrobial performance (single agent 10 gm/lit, curing 160° C.): 0.98 Log | Performance Test-Log reduction of antimicrobial performance (single agent 10 gm/lit, curing 180° C.): 2.21 Log | Log reduction of antimicrobial performance (pure cotton fabric, exhaust 80° C., 60 min, dosage 0.1% o.w.f): 0.81 Log | Log reduction of antimicrobial performance (pure cotton fabric, exhaust 80° C., 60 min, dosage 0.2% o.w.f): 1.67 Log | Log reduction of antimicrobial performance (pure cotton fabric, exhaust 80° C., 60 min, dosage 0.5% o.w.f): 1.83 Log | Log reduction of antimicrobial performance (pure cotton fabric, exhaust 80° C., 60 min, dosage 0.8% o.w.f): 2.17 Log | Log reduction of antimicrobial performance (pure cotton fabric, exhaust 80° C., 60 min, dosage 1.0% o.w.f): 2.56 Log | Log reduction of antimicrobial performance (pure cotton, exhaust 80° C., 1% o.w.f, 60 min, curing 180° C., curing dwell time 0.5 min): 0.3 Log | Log reduction of antimicrobial performance (pure cotton, exhaust 80° C., 1% o.w.f, 60 min, curing 180° C., curing dwell time 1.0 min): 1.1 Log | Log reduction of antimicrobial performance (pure cotton, exhaust 80° C., 1% o.w.f, 60 min, curing 180° C., curing dwell time 1.5 min): 1.8 Log | Log reduction of antimicrobial performance (pure cotton, exhaust 80° C., 1% o.w.f, 60 min, curing 180° C., curing dwell time 2.0 min): 2.5 Log | Log reduction of antimicrobial performance (pure cotton, exhaust 80° C., 1% o.w.f, 60 min, curing 180° C., curing dwell time 2.5 min): 2.4 Log | Log reduction of antimicrobial performance (pure cotton, exhaust 80° C., 1% o.w.f, 60 min, curing 180° C., curing dwell time 3.0 min): 1.4 Log | Log reduction of antimicrobial performance (pure polyester fabric, exhaust 80° C., 60 min, curing 180° C., curing dwell time 0.5 min): 0.4 Log | Log reduction of antimicrobial performance (pure polyester fabric, exhaust 80° C., 60 min, curing 180° C., curing dwell time 1.0 min): 1.2 Log | Log reduction of antimicrobial performance (pure polyester fabric, exhaust 80° C., 60 min, curing 180° C., curing dwell time 1.5 min): 1.7 Log | Log reduction of antimicrobial performance (pure polyester fabric, exhaust 80° C., 60 min, curing 180° C., curing dwell time 2.0 min): 2.75 Log | Log reduction of antimicrobial performance (pure polyester fabric, exhaust 80° C., 60 min, curing 180° C., curing dwell time 2.5 min): 2.45 Log | Log reduction of antimicrobial performance (pure polyester fabric, exhaust 80° C., 60 min, curing 180° C., curing dwell time 3.0 min): 1.3 Log | Log reduction of antimicrobial performance (pure polyester fabric, exhaust 80° C., 60 min, dosage 0.1% o.w.f): 0.72 Log | Log reduction of antimicrobial performance (pure polyester fabric, exhaust 80° C., 60 min, dosage 0.2% o.w.f): 1.65 Log | Log reduction of antimicrobial performance (pure polyester fabric, exhaust 80° C., 60 min, dosage 0.5% o.w.f): 1.75 Log | Log reduction of antimicrobial performance (pure polyester fabric, exhaust 80° C., 60 min, dosage 0.8% o.w.f): 2.16 Log | Log reduction of antimicrobial performance (pure polyester fabric, exhaust 80° C., 60 min, dosage 1.0% o.w.f): 2.58 Log | Log reduction of antimicrobial performance (solution dosage 0.10% o.w.f, exhaust temperature 40° C., process time 60 min): 0 Log | Log reduction of antimicrobial performance (solution dosage 0.10% o.w.f, exhaust temperature 60° C., process time 60 min): 0 Log | Log reduction of antimicrobial performance (solution dosage 0.10% o.w.f, exhaust temperature 65° C., process time 60 min): 0 Log | Log reduction of antimicrobial performance (solution dosage 0.10% o.w.f, exhaust temperature 70° C., process time 60 min): 0 Log | Log reduction of antimicrobial performance (solution dosage 0.10% o.w.f, exhaust temperature 75° C., process time 60 min): 0.63 Log | Log reduction of antimicrobial performance (solution dosage 0.10% o.w.f, exhaust temperature 80° C., process time 60 min): 0.78 Log | Log reduction of antimicrobial performance (solution dosage 0.10% o.w.f, exhaust temperature 85° C., process time 60 min): 0.81 Log | Log reduction of antimicrobial performance (solution dosage 0.10% o.w.f, exhaust temperature 90° C., process time 60 min): 0.82 Log | Log reduction of antimicrobial performance (solution dosage 0.10% o.w.f, exhaust temperature 95° C., process time 60 min): 0.82 Log | Log reduction of antimicrobial performance (solution dosage 0.20% o.w.f, exhaust temperature 40° C., process time 60 min): 0 Log | Log reduction of antimicrobial performance (solution dosage 0.20% o.w.f, exhaust temperature 60° C., process time 60 min): 0.09 Log | Log reduction of antimicrobial performance (solution dosage 0.20% o.w.f, exhaust temperature 65° C., process time 60 min): 0.10 Log | Log reduction of antimicrobial performance (solution dosage 0.20% o.w.f, exhaust temperature 70° C., process time 60 min): 0.17 Log | Log reduction of antimicrobial performance (solution dosage 0.20% o.w.f, exhaust temperature 75° C., process time 60 min): 0.92 Log | Log reduction of antimicrobial performance (solution dosage 0.20% o.w.f, exhaust temperature 80° C., process time 60 min): 1.52 Log | Log reduction of antimicrobial performance (solution dosage 0.20% o.w.f, exhaust temperature 85° C., process time 60 min): 1.65 Log | Log reduction of antimicrobial performance (solution dosage 0.20% o.w.f, exhaust temperature 90° C., process time 60 min): 1.65 Log | Log reduction of antimicrobial performance (solution dosage 0.20% o.w.f, exhaust temperature 95° C., process time 60 min): 1.65 Log | Log reduction of antimicrobial performance (solution dosage 0.50% o.w.f, exhaust temperature 40° C., process time 60 min): 0 Log | Log reduction of antimicrobial performance (solution dosage 0.50% o.w.f, exhaust temperature 60° C., process time 60 min): 0.17 Log | Log reduction of antimicrobial performance (solution dosage 0.50% o.w.f, exhaust temperature 65° C., process time 60 min): 0.18 Log | Log reduction of antimicrobial performance (solution dosage 0.50% o.w.f, exhaust temperature 70° C., process time 60 min): 0.19 Log | Log reduction of antimicrobial performance (solution dosage 0.50% o.w.f, exhaust temperature 75° C., process time 60 min): 1.23 Log | Log reduction of antimicrobial performance (solution dosage 0.50% o.w.f, exhaust temperature 80° C., process time 60 min): 1.78 Log | Log reduction of antimicrobial performance (solution dosage 0.50% o.w.f, exhaust temperature 85° C., process time 60 min): 1.82 Log | Log reduction of antimicrobial performance (solution dosage 0.50% o.w.f, exhaust temperature 90° C., process time 60 min): 1.83 Log | Log reduction of antimicrobial performance (solution dosage 0.50% o.w.f, exhaust temperature 95° C., process time 60 min): 1.83 Log | Log reduction of antimicrobial performance (solution dosage 0.80% o.w.f, exhaust temperature 40° C., process time 60 min): 0 Log | Log reduction of antimicrobial performance (solution dosage 0.80% o.w.f, exhaust temperature 60° C., process time 60 min): 0.23 Log | Log reduction of antimicrobial performance (solution dosage 0.80% o.w.f, exhaust temperature 65° C., process time 60 min): 0.24 Log | Log reduction of antimicrobial performance (solution dosage 0.80% o.w.f, exhaust temperature 70° C., process time 60 min): 0.36 Log | Log reduction of antimicrobial performance (solution dosage 0.80% o.w.f, exhaust temperature 75° C., process time 60 min): 1.32 Log | Log reduction of antimicrobial performance (solution dosage 0.80% o.w.f, exhaust temperature 80° C., process time 60 min): 2.13 Log | Log reduction of antimicrobial performance (solution dosage 0.80% o.w.f, exhaust temperature 85° C., process time 60 min): 2.23 Log | Log reduction of antimicrobial performance (solution dosage 0.80% o.w.f, exhaust temperature 90° C., process time 60 min): 2.34 Log | Log reduction of antimicrobial performance (solution dosage 0.80% o.w.f, exhaust temperature 95° C., process time 60 min): 2.34 Log | Log reduction of antimicrobial performance (solution dosage 1.00% o.w.f, exhaust temperature 40° C., process time 60 min): 0 Log | Log reduction of antimicrobial performance (solution dosage 1.00% o.w.f, exhaust temperature 60° C., process time 60 min): 0.28 Log | Log reduction of antimicrobial performance (solution dosage 1.00% o.w.f, exhaust temperature 65° C., process time 60 min): 0.29 Log | Log reduction of antimicrobial performance (solution dosage 1.00% o.w.f, exhaust temperature 70° C., process time 60 min): 0.42 Log | Log reduction of antimicrobial performance (solution dosage 1.00% o.w.f, exhaust temperature 75° C., process time 60 min): 1.45 Log | Log reduction of antimicrobial performance (solution dosage 1.00% o.w.f, exhaust temperature 80° C., process time 60 min): 2.56 Log | Log reduction of antimicrobial performance (solution dosage 1.00% o.w.f, exhaust temperature 85° C., process time 60 min): 2.69 Log | Log reduction of antimicrobial performance (solution dosage 1.00% o.w.f, exhaust temperature 90° C., process time 60 min): 2.71 Log | Log reduction of antimicrobial performance (solution dosage 1.00% o.w.f, exhaust temperature 95° C., process time 60 min): 2.71 Log
